These results are taken from US20230183169A1, “AROMATIC COMPOUND, PREPARATION METHOD THEREFOR AND USE THEREOF IN DRUG” (SICHUAN ACADEMY OF MEDICAL SCIENCES - SICHUAN PROVINCIAL …, priority 2020, published 2023).

Where a name gives a salt, the structure may show the parent alone.

Common to all, as to assay type: in vivo, rat
Data set [1] has as its system male SD rats. Kind of data set: Subcutaneous infiltration anesthesia in rats (acupuncture stimulation of back skin). The settings on record: for Duration of local anesthesia: 0.4 mL subcutaneous. As for the experimental part:
The compounds of the examples were dissolved in water for injection to a concentration of 0.2-0.5 g/100 mL (0.2-0.5%), or mixed with commercially-available clinically-common local anesthetic drugs to prepare a mixed solution with a specific proportion, and the 0.75% levobupivacaine was used as the positive control compound. The experimental method was as follows: male SD rats weighing 180-300 g were shaved off back hair 1 day before the experiment, and a circular skin area with a diameter of 4 cm was exposed. 0.4 mL of the drug solution was subcutaneously injected to the exposed circular center on the back using a 1 mL syringe to form a skin mound. After 1 minute, the first measurement was performed. Each of 8 random parts around the center of the injection site was stimulated once by acupuncture of 15 g force using a 26G needle (the stimulation site was no more than 1 cm away from the injection center). […] If there was no such behavior, it was considered that the local anesthetic effect existed. […] Except for the first measurement, the measurement was performed every 2 hours within 12 hours after the administration, and every 6 hours after 12 hours after the administration. 8 rats were used for each drug for the experiment.

Data set [2] relates to left sciatic nerve of rats. The experiment in a line: Sciatic nerve blocking experiment in rats (Von Frey filaments 60 g). As to the method: The compounds of the examples were dissolved in water for injection to a concentration of 0.5-2.0 g/100 mL (0.5%-2%), or mixed with commercially-available clinically-common local anesthetic drugs to prepare a mixed solution with a specific proportion, and the 0.75% levobupivacaine was used as the positive control compound. The experimental method was as follows: male SD rats weighing 180-300 g were anesthetized with isoflurane, 0.2 mL of the drug-containing solution was injected near the left sciatic nerve of rats, and 8 rats were used for each drug for the experiment. After the rats woke up, the first measurement was performed, and then the measurement was performed every 2 hours. If there was still an anesthetic effect after six measurements, the measurement was performed every 6 hours until the anesthetic effect disappeared. The method for judging the existence of anesthetic effect was as follows. The skin of the sole and lateral surface of the hindlimb of the rat on the side injected with the drug was stimulated using Von Frey filaments (60 g). […] If there was no such behavior, it was considered that the local anesthetic effect existed.

The test system of data set [3] is rats. The experiment in a line: Mortality rate after injection of drugs through tail vein. To be noted: 0.4 mL through tail vein, 10 rats. As for the experimental part: 0.2% aqueous solution of the compounds of the present invention and 0.75% levobupivacaine solution were injected into the rats through tail vein in 0.4 mL, and the mortality rate was observed. Each drug was injected into 10 rats (half male and half female, weighing 290-310).

Setting [4] is: 0.5%, 0.2 mL near left sciatic nerve.
[5] abbreviates: 1.0%, 0.2 mL near left sciatic nerve.
[6] abbreviates: 2.0%, 0.2 mL near left sciatic nerve.
[7] abbreviates: 0.15 + 0.15% tetracaine hydrochloride.
Where [8] appears, read: 0.5 + 0.15% tetracaine hydrochloride, 0.2 mL near sciatic nerve.
The mark [9] stands for this setting: 0.75%, 0.2 mL near left sciatic nerve.

With `CCCCCOC(=O)Oc1cc(C)c(NC(=O)C[N+](CC)(CC)CC)c(C)c1` [Compound 27], the “Duration of local anesthesia” value in data set [1] (0.15 + 0.5% lidocaine hydrochloride) was in the range of 36 to 60 h; in data set [1] (0.2%, rat back), 18 to 30 h; in data set [1] (0.5%, rat back), 36 to 48 h; in data set [2] (setting [4]) it was 12 to 24 h; in data set [2] (0.5 + 0.5% lidocaine hydrochloride, 0.2 mL near sciatic nerve) it was 36 to 66 h; in data set [2] (setting [5]), 30 to 42 h. Further, the “Duration of local anesthesia” value in data set [2] (setting [6]) lay in the range of 96 to 144 h. In data set [3] (0.2% aqueous solution), this compound displayed a Mortality rate % of 0%.

For the compound `CC[N+](CC)(CCO)CC(=O)Nc1c(C)cc(OC(=O)CCCc2ccc(Cl)cc2)cc1C` [Compound 31], the “Duration of local anesthesia” value in data set [1] (0.15 + 0.35% lidocaine hydrochloride) was in the range of 36 to 42 h; in data set [1] (0.2%, rat back) it was 24 to 30 h; in data set [1] (0.5%, rat back) it was 36 to 54 h; in data set [2] (setting [4]) it was 12 to 18 h; in data set [2] (0.5 + 0.35% lidocaine hydrochloride, 0.2 mL near sciatic nerve), 24 to 42 h; in data set [2] (setting [5]), 24 to 30 h. The “Duration of local anesthesia” value in data set [2] (setting [6]) was 72 to 120 h. In data set [3] (0.2% aqueous solution), this compound displayed a Mortality rate % of 0%.

Consider `CC[N+](CC)(CC)CC(=O)Nc1c(C)cc(OC(=O)CCCCCCCN2CCCCC2C(=O)Nc2c(C)cccc2C)cc1C` (stereo not shown) [Compound 50], for which the “Duration of local anesthesia” value in data set [1] (setting [7]) was in the range of 42 to 54 h; in data set [1] (0.2%, rat back), 18 to 30 h; in data set [1] (0.5%, rat back), 24 to 48 h; in data set [2] (setting [4]), 24 to 30 h; in data set [2] (setting [8]), 36 to 60 h; in data set [2] (setting [5]), 36 to 48 h. In addition, the “Duration of local anesthesia” value in data set [2] (setting [6]) lay within 96 to 120 h. In addition, the Mortality rate % in data set [3] (0.2% aqueous solution) is 0%.

As to `CCCCN1CCCC[C@H]1C(=O)Nc1c(C)cccc1C` [Levobupivacaine hydrochloride, reference compound], the “Duration of local anesthesia” value in data set [1] (0.75%, rat back, hydrochloride) was 4 to 6 h; in data set [1] (0.75%, rat back, listed as levobupivacaine, hydrochloride), 4 to 6 h; in data set [2] (setting [9]) it was 2 to 6 h. For the same compound, in data set [2] (0.75%, compared with sensory block), the “Duration of motor block” value is reported as “basically the same as that of the sensory block”. The “Block of motor function of the hindlimb” value in data set [2] (0.75%, side injected with the drug) was “significantly blocked the motor function”. The Mortality rate % is reported as 70% in data set [3] (0.75% solution, hydrochloride); “death of most animals” in data set [3] (0.75% solution, listed as levobupivaca, hydrochloride); 70% in data set [3] (0.75% solution, listed as levobupivacaine, hydrochloride).

As to `CCN(CCCCCOc1cc(C)c(NC(=O)C[N+](CC)(CC)CC)c(C)c1)CC(=O)Nc1c(C)cccc1C` [Compound 45], the “Duration of local anesthesia” value in data set [1] (setting [7]) fell in the range of 36 to 48 h; in data set [1] (0.2%, rat back), 24 to 36 h; in data set [1] (0.5%, rat back), 42 to 60 h; in data set [2] (setting [4]), 18 to 24 h; in data set [2] (setting [8]) it was 36 to 42 h; in data set [2] (setting [5]), 30 to 42 h. Further, the “Duration of local anesthesia” value in data set [2] (setting [6]) lay in the range of 96 to 120 h. Further, the Mortality rate % in data set [3] (0.2% aqueous solution) was found to be 0%.

Regarding `C=CC[N+]1(CC(=O)Nc2c(C)cc(OC(=O)CCC)cc2C)CCCCC1` [Compound 26], the “Duration of local anesthesia” value in data set [1] (0.15 + 0.35% levobupivacaine hydrochloride) was 42 to 54 h; in data set [1] (0.2%, rat back) it was 24 to 36 h; in data set [1] (0.5%, rat back), 54 to 66 h; in data set [2] (setting [4]), 24 to 30 h; in data set [2] (0.5 + 0.35% levobupivacaine hydrochloride, 0.2 mL near sciatic nerve) it was 36 to 48 h; in data set [2] (setting [5]) it was 48 to 60 h. Also, the “Duration of local anesthesia” value in data set [2] (setting [6]) lay within 96 to 160 h. For the same compound, the Mortality rate % in data set [3] (0.2% aqueous solution) is 0%.

Take `CC[N+](CC)(CC)CC(=O)Nc1c(C)cc(N)cc1C` [Compound 7]: the “Duration of local anesthesia” value in data set [1] (0.15 + 0.35% bupivacaine hydrochloride) is 4 to 6 h; in data set [1] (0.2%, rat back), 2 to 4 h; in data set [1] (0.5%, rat back), 2 to 4 h; in data set [2] (setting [4]) it was less than 2 h; in data set [2] (0.5 + 0.35% bupivacaine hydrochloride, 0.2 mL near sciatic nerve) it was 2 to 4 h; in data set [2] (setting [5]) it was less than 2 h. In data set [2] (setting [6]), the “Duration of local anesthesia” value lay in the range of 2 to 4 h. Moreover, the “Local anesthetic effect at the first measurement” value in data set [1] (injections of 0.2% and 0.5%, first measurement 1 minute after subcutaneous injection) is “not effective”.

In the case of `CCCCN1CCCCC1C(=O)Nc1c(C)cccc1C` (stereo not shown) [bupivacaine, reference compound], the “Duration of local anesthesia” value in data set [1] (0.75%, rat back) lay within 4 to 6 h; in data set [2] (setting [9]) it was 2 to 6 h.
